Patent publication US8853193B2, “Thienopyrimidines containing a substituted alkyl group for pharmaceutical compositions” (Boehringer Ingelheim International GmbH, priority 2010, dated 2014)
Counter-ions that a name gives are not always drawn.

Each compound was assayed against human Mnk2a (Homo sapiens (Human), UniProt Q9HBH9) (assay: Mnk2a in vitro kinase assay (indirect competitive fluorescence polarization)). Settings: pre-activated GST-Mnk2a 2.5 nM, 20 μM ATP, 30 μM substrate peptide; read-out: MNK2 IC50.
Assay type: biochemical
Outline: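 GST-tagged human Mnk2a expressed in E. coli and glutathione-purified, then activated at 2.5 μM with 150 nM pre-activated NHis-ERK2 and 50 μM ATP in HEPES/KOH pH 7.4, MgCl2, DTT, Brij 78 for 45 min at 30 °C. Phospho-peptide product read by indirect competitive fluorescence polarization against fluorophore-labelled phospho-peptide bound to phospho-specific antibody.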

Chain of human Mnk2a (Q9HBH9 whole entry): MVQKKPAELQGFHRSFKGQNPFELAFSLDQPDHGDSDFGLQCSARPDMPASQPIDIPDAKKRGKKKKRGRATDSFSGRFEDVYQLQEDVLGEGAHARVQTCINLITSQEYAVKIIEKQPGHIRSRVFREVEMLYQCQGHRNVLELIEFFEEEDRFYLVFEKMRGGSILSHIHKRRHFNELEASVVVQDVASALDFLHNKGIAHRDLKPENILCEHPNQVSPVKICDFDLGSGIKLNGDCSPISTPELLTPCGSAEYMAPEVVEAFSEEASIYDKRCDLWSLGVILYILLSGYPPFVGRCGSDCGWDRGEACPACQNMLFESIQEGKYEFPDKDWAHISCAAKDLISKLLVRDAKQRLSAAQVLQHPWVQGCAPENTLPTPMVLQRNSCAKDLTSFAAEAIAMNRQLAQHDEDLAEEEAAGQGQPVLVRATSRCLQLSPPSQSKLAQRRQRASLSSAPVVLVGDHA

SMILES	IC50 [nM]
Cc1c(C(=O)NCCO)sc2ncnc(Nc3cccnc3OCC(F)F)c12 [Compound 30-4, 4-(2-(2,2-difluoroethoxy)-pyridin-3-ylamino)-N-(2-hydroxy-ethyl)-5-methylthieno [2,3-d]pyrimi-dine-6-carboxamide]	48
CCNC(=O)C(C)Oc1cc(F)ccc1Nc1ncnc2sc(C(=O)NCCCN(C)C)c(C)c12 (centres unmarked) [Compound 40, 4-[2-(1-Ethylcarbamoyl-ethoxy)-4-fluoro-phenylamino]-5-methyl-thieno[2,3-d]pyrimidine-6-carboxylic acid (3-dimethylamino-propyl)-amide]	20
Cc1c(C(=O)NCCO)sc2ncnc(Nc3ccc(F)cc3OC(C)CN)c12 (centres unmarked) [Compound 2-3, 4-(2-(1-Amino-propan-2-yloxy)-4-fluorophenylamino)-N-(2-hydroxy-ethyl)-5-methyl-thieno[2,3-d]-pyrimidine-6-carboxamide]	50
Cc1c(C(=O)NCCO)sc2ncnc(Nc3ccc(F)cc3OCC3(CC#N)CC3)c12 [Compound 32-14]	65
Cc1c(C(=O)NCC2CNCCO2)sc2ncnc(Nc3cccnc3OC(C)C)c12 (centres unmarked) [Compound 36-5, 4-(2-Isopropoxypyridin-3-ylamino)-5-methyl-N-(morpholin-2ylmethyl) thieno[2,3-d]pyrimidine-6-carboxamide]	25
COC(=O)c1sc2ncnc(Nc3ccc(F)cc3OC(CF)CF)c2c1C [Compound 23-1, Methyl 4-(2-(1,3-difluoropropan-2-yloxy)-4-fluorophenylamino)-5-methyl-thieno[2,3-d]pyrimidine-6-carboxylate]	78
Cc1c(C(=O)NCCCN(C)C)sc2ncnc(Nc3ccc(F)cc3OCC3(CC#N)CC3)c12 [Compound 32-15]	78
CCCCNC(=O)NCCC(C)Oc1cc(F)ccc1Nc1ncnc2sc(C(=O)OC)c(C)c12 (centres unmarked) [Compound 13-4, Methyl 4-(2-(4-(3-butylureido)-butan-2-yloxy)-4-fluorophenyl-amino)-5-methylthieno[2,3-d]pyrimidine-6-carboxylate]	898
Cc1c(C(N)=O)sc2ncnc(Nc3cccnc3OC(C)C)c12 [Compound 35, 4-(2-Isopropoxypyridin-3-ylamino)-5-methyl-thieno[2,3-d]pyrimidine-6-carboxamide]	12
Cc1c(C(N)=O)sc2ncnc(Nc3cccnc3OC(C)CCNS(C)(=O)=O)c12 (centres unmarked) [Compound 45, 4-[2-(3-Methanesulfonylamino-1-methyl-propoxy)-pyridin-3-ylamino]-5-methyl-thieno[2,3-d]pyrimidine-6-carboxylic acid amide]	20
Cc1c(C(=O)O)sc2ncnc(Nc3cccnc3OCC(C)F)c12 (centres unmarked) [Compound 27-2, 4-(2-(2-Fluoropropoxy)pyridin-3-ylamino)-5-methyl-thieno[2,3-d]pyrimidine-6-carboxylic acid]	33
Cc1c(C(=O)NCCO)sc2ncnc(Nc3ccc(F)cc3OC(C)CNC(=O)OC(C)(C)C)c12 (centres unmarked) [Compound 1-5, tert-Butyl 2-(5-fluoro-2-(6-(2-hydroxyethyl-carbamoyl)-5-methylthieno[2,3-d]-pyrimidin-4-yl-amino)-phenoxy)propyl-carbamate]	459
Cc1c(C(=O)NS(C)(=O)=O)sc2ncnc(Nc3ccc(F)cc3OC(CF)CF)c12 [Compound 24, 4-(2-(1,3-Difluoropropan-2-yloxy)-4-fluorophenylamino)-5-methyl-N-(methylsulfonyl)thieno[2,3-d]pyrimidine-6-carboxamide]	7
COC(=O)c1sc2ncnc(Nc3cccnc3OC(C)CCN)c2c1C (centres unmarked) [Compound 15-2, Methyl 4-(2-((4-aminobutan-2yloxy)pyridin-3ylamino)-5-methyl-thieno[2,3-d]pyrimidine-6-carboxylate trifluoroacetate]	174
Cc1c(C(=O)NCCCN2CCCC2)sc2ncnc(Nc3ccc(F)cc3OC(C)CF)c12 (centres unmarked) [Compound 32-44]	6
Cc1c(C(=O)NC2CCN(C)CC2)sc2ncnc(Nc3ccc(C#N)cc3OC(CF)CF)c12 [Compound 50, 4-(4-Cyano-2-(2-fluoro-1-fluoromethyl-ethoxy)-phenylamino]-5-methyl-thieno[2,3-d]pyrimidine-6-carboxylic acid (1-methyl-piperidin-4-yl)-amide]	13
Cc1c(C(N)=O)sc2ncnc(Nc3ccc(F)cc3OC(C)CNC(=O)OC(C)(C)C)c12 (centres unmarked) [Compound 5, tert-Butyl 2-(2-(6-carbamoyl-5-methyl-thieno[2,3-d]pyrimidin-4-ylamino)-5-fluorophenoxy)propylcarbamate]	230
Cc1c(C(=O)NCCO)sc2ncnc(Nc3cccnc3OCC(C)F)c12 (centres unmarked) [Compound 27-3, 4-(2-(2-Fluoropropoxy)pyridin-3-ylamino)-N-(2-hydroxyethyl)-5-methyl-thieno[2,3-d]pyrimidine-6-carboxamide]	58
COC(=O)c1sc2ncnc(Nc3cccnc3OC(C)CN)c2c1C (centres unmarked) [Compound 11-2, Methyl 4-(2-(1-aminopropan-2yloxy)-pyridin-3-ylamino)-5-methyl-thieno[2,3-d]pyrimidine-6-carboxylate hydrochloride]	418
COCC(C)Oc1cc(F)ccc1Nc1ncnc2sc(C(=O)NCCO)c(C)c12 (centres unmarked) [Compound 32-36]	25
Cc1c(C(N)=O)sc2ncnc(Nc3cccnc3OC(C)CCN)c12 (centres unmarked) [Compound 16-4]	44

SMILES	IC50 [nM]
Cc1c(C(=O)NCc2cnco2)sc2ncnc(Nc3cccnc3OC(C)C)c12 [Compound 36-8, 4-(2-Isopropoxypyridin-3ylamino)-5-methyl-N-(oxazol-5-ylmethyl)thieno[2,3-d]pyrimidine-6-carboxamide]	19
Cc1c(C(=O)NCCCN(C)C)sc2ncnc(Nc3cccnc3OC(C)C(F)(F)F)c12 (centres unmarked) [Compound 21-5, N-(3-(dimethyl-amino)propyl)-5-methyl-4-(2-(1,1,1-trifluoro-propan-2-yloxy)-pyridin-3-yl-amino)thieno[2,3-d]pyrimidine-6-carboxamide]	42
Cc1c(C(=O)O)sc2ncnc(Nc3cccnc3OCC(F)F)c12 [Compound 30-2, 4-(2-(2,2-Difluoroethoxy)pyridin-3-ylamino)-5-methylthieno[2,3-d]pyrimidine-6-carboxylic acid]	20
CCOCC(COCC)Oc1cc(F)ccc1Nc1ncnc2sc(C(N)=O)c(C)c12 [Compound 22-3, 4-(2-(1,3-Diethoxypropan-2-yloxy)-4-fluorophenylamino)-5-methyl-thieno[2,3-d]pyrimidine-6-carboxamide]	296
COCC(CF)Oc1cc(F)ccc1Nc1ncnc2sc(C(=O)O)c(C)c12 (centres unmarked) [Compound 32-6]	23
Cc1c(C(=O)NCCCN(C)C)sc2ncnc(Nc3ccc(F)cc3OCC(C)F)c12 (centres unmarked) [Compound 32-39]	35
Cc1c(C(=O)NCCO)sc2ncnc(Nc3ccc(F)cc3OCC3CC3(F)F)c12 (centres unmarked) [Compound 32-20]	19
Cc1c(C(=O)NCC#CCN(C)C)sc2ncnc(Nc3ccc(F)cc3OC(CF)CF)c12 [Compound 23-9, 4-(2-(1,3-difluoro-propan-2-yloxy)-4-fluorophenylamino)-N-(4-(dimethylamino)-but-2ynyl)-5-methyl-thieno[2,3-d]pyrimidine-6-carboxamide]	7
Cc1c(C(N)=O)sc2ncnc(Nc3ccc(F)cc3OC(C)C#N)c12 (centres unmarked) [Compound 54]	11
Cc1c(C(=O)NCCCN(C)C)sc2ncnc(Nc3ccc(F)cc3OCCC(F)(F)F)c12 [Compound 32-38]	26
Cc1c(C(=O)NCCCN(C)C)sc2ncnc(Nc3cccnc3OC(C)CCN)c12 (centres unmarked) [Compound 16-3, 4-(2-(4-Aminobutan-2yloxy)pyridin-3-ylamino)-N-(3-(dimethylamino)propyl)-5-methylthieno[2,3-d]pyrimidine-6-carboxamide bis(2,2,2-trifluoroacetate)]	74
Cc1c(C(=O)NCC2COCCN2)sc2ncnc(Nc3cccnc3OC(C)C)c12 (centres unmarked) [Compound 36-14, 4-(2-Isopropoxypyridin-3ylamino)-5-methyl-N-(morpholin-3-ylmethyl) thieno[2,3-d]pyrimidine-6-carboxamide]	64
Cc1c(C(=O)NCCCCO)sc2ncnc(Nc3cccnc3OC(C)C)c12 [Compound 36-2, N-(4-Hydroxybutyl)-4-(2-isopropoxypyridin-3-ylamino)-5-methylthieno[2,3-d]pyrimidine-6-carboxamide]	42
Cc1c(C(=O)O)sc2ncnc(Nc3ccc(F)cc3OCCC(F)(F)F)c12 [Compound 32-11]	14
COCC(C)Oc1cc(F)ccc1Nc1ncnc2sc(C(=O)NCCCN(C)C)c(C)c12 (centres unmarked) [Compound 32-35]	35
Cc1c(C(N)=O)sc2ncnc(Nc3ccc(F)cc3O[C@@H](C)CN)c12 (racemic) [Compound 6-2, (R) and (S)-4-(2-(1-aminopropan-2-yloxy)-4-fluorophenylamino)-5-methylthieno[2,3-d]pyrimidine-6-carboxamide trifluoroacetate]	90
Cc1c(C(=O)NC2CCN(C)CC2)sc2ncnc(Nc3ccc(F)cc3OC(C)CC(F)(F)F)c12 (centres unmarked) [Compound 32-41]	25
Cc1c(C(=O)NCCO)sc2ncnc(Nc3cccnc3OC(C)C)c12 [Compound 36-12, N-(2-Hydroxyethyl)-4-(2-isopropoxypyridin-3ylamino)-5-methylthieno[2,3-d]pyrimidine-6-carboxamide]	31
Cc1c(C(=O)NCC#CCN(C)C)sc2ncnc(Nc3ccc(C#N)cc3OC(CF)CF)c12 [Compound 52, 4-(4-Cyano-2-(2-fluoro-1-fluoromethyl-ethoxy)-phenylamino]-5-methyl-thieno[2,3-d]pyrimidine-6-carboxylic acid (4-dimethylamino-but-2-ynyl)-amide]	25
COCC(CF)Oc1cc(F)ccc1Nc1ncnc2sc(C(=O)NCCO)c(C)c12 (centres unmarked) [Compound 32-25]	13
